From patent US8937078B2, “Quinazolinones as prolyl hydroxylase inhibitors” (Janssen Pharmaceutica NV, priority 2009, dated 2015)
Where a name gives a salt, the structure may show the parent alone.

Assays:
[1] = molecular target: T1, human PHD2 (PHD2181-417) (Homo sapiens, UniProt Q9GZT9); test: PHD enzymatic assay ([14C]-succinic acid production); assay type: biochemical; settings: PHD2181-417, HIF-1α peptide 10 μM, average of results; read-out: Enzyme pIC50 (converted)
T1 construct: Smt (SUMO) tag (cleaved yes); made in house; host or cells: E. coli BL21 (pBAD vector)
Description: Protein production was achieved by expression in BL21 cells grown in Terrific Broth containing 100 μg/ml ampicillin. Cell cultures were inoculated at 37° C. and grown to an OD600 of 0.8. Cultures were induced with 0.1% arabinose and grown overnight at 20° C. with continuous shaking at 225 rpm. Cells were then harvested by centrifugation and stored at −80° C. Cell pellets were suspended in Buffer A (50 mM Tris-HCl pH 7.2, 100 mM NaCl, 100 mM L-arginine, 1 mM TCEP, 0.05% (w/v) NP-40, 50 mM imidazole) followed by the addition of lysozyme and benzonase. Cells were lysed by sonication and the lysate was cleared by centrifugation (15,000 rpm, 90 min, 4° C.). The protein was purified by nickel affinity chromatography using a HisTrap Crude FF column (GE Healthcare). Samples were eluted in Buffer A with a 50-200 mM imidazole gradient. […] The flow-through was then dialyzed into 50 mM MES pH 6.0, 1 mM TCEP, 5 mM NaCl for ion exchange chromatography on a HiTrap SP Cation Exchange column (GE Healthcare). […] Fractions were pooled for further purification by size exclusion chromatography over a Superdex 75 Size Exclusion Column (GE Healthcare). Final protein was concentrated to 4 mg/ml and dialyzed in 10 mM PIPES pH 7.0, 100 mM NaCl, 0.5 mM TCEP.
(10 μM, California Peptide Research Inc., Napa, Calif.), and [5-^14C]-2-oxoglutaric acid (50 mCi/mmol, Moravek Chemicals, Brea, Calif.) in reaction buffer (40 mM Tris-HCl, pH 7.5, 0.4 mg/ml catalase, 0.5 mM DTT, 1 mM ascorbate) for 10 minutes. The reaction was stopped by addition of 50 μl of 70 mM H3PO4 and 50 μl of 500 mM NaH2PO4, pH3.2. Detection of [^14C]-succinic acid was achieved by separating from [5-^14C]-2-oxoglutaric acid by incubating the reaction mixture with 100 μl of 0.16 M DNP prepared in 30% perchloric acid. Next, 50 μl of unlabeled 20 mM 2-oxoglutaric acid/20 mM succinic acid, serving as carrier for the radioactivity, was added to the mixture, and was allowed to proceed for 30 minutes at room temperature. The reaction was then incubated with 50 μl of 1 M 2-oxoglutaric acid for 30 additional minutes at room temperature to precipitate the excess DNP. The reaction was then centrifuged at 2800×g for 10 minutes at room temperature to separate [^14C]-succinic acid in the supernatant from the precipitated [^14C]-dinitrophenylhydrazone. Fractions of the supernatant (400 μl) were counted using a beta counter (Beckman Coulter, Fullerton, Calif.).

[2] = test system: Hep-3B cells; test: Cellular assay: erythropoietin secretion in Hep-3B cells; assay type: cell-based, human; settings: Homo sapiens, Hep3B, 100 μM compound, 24 hours, percent of EPO secretion relative to assay control compound 7-[(4-Chloro-phenyl)-(5-methyl-isoxazol-3-ylamino)-methyl]-quinolin-8-ol, read-out: Cellular % EPO Stimulation
Description: Hep-3B cells (ATCC, Manassas, Va.) were plated in 96-well plates at 20,000 cells per well in 100 μl of DMEM containing 10% fetal bovine serum, 1% non-essential amino acids, 50 IU/mL of penicillin and 50 μg/mL of streptomycin (all cell culture reagents from Invitrogen, Carlsbad, Calif.). Twenty-four hours after plating, compounds were added and incubated for an additional 24 hours. All compounds were tested under saturating conditions with final compound concentrations at 100 μM. Fifty microliters of the supernatant was then transferred to a human Hypoxia assay kit (Meso-Scale Discovery, Gaithersburg, Md.). Erythropoietin in the supernatant was detected according to the manufacturer's instructions as follows. EPO detection plates were blocked with 3% BSA in PBS overnight and 50 μl of the supernatant was incubated at room temperature in an orbital shaker for 2 h. Twenty-five microliters of 0.5 μg/ml anti-EPO detection antibody was added for 2 hours at room temperature in an orbital shaker. After 3 washes in PBS, 150 μl of 1× read buffer is added and the plate is then read on the MSD SECTOR instrument.

T1 sequence (Q9GZT9 181-417): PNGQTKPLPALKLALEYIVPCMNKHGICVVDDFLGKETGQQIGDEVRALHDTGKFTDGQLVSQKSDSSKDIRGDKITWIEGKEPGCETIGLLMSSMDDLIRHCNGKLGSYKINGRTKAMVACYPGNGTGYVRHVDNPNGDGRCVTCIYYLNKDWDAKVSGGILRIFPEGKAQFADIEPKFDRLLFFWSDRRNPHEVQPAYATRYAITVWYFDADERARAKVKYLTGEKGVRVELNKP

| IC50 [1] | SMILES | Emax at 100 µM [2] |
| --- | --- | --- |
| 20 nM | O=C(O)c1cnn(-c2nc3cc(F)c(F)cc3c(=O)[nH]2)c1 [Example 5, 1-(6,7-Difluoro-4-oxo-3,4-dihydro-quinazolin-2-yl)-1H-pyrazole-4-carboxylic acid, trifluoroacetate salt] | 21% |
| 39.8 nM | O=C(O)c1cnn(-c2nc3cc(Sc4ccccc4)ccc3c(=O)[nH]2)c1 [Example 78, 1-(4-Oxo-7-phenylsulfanyl-3,4-dihydro-quinazolin-2-yl)-1H-pyrazole-4-carboxylic acid] | 5% |
| 398 nM | CC(C)Oc1ccc2c(=O)[nH]c(-n3cc(C(=O)O)cn3)nc2c1 [Example 149, 1-(7-Isopropoxy-4-oxo-3,4-dihydro-quinazolin-2-yl)-1H-pyrazole-4-carboxylic acid] | 9% |
| 25.1 nM | O=C(O)c1cnn(-c2nc3ccc([N+](=O)[O-])cc3c(=O)[nH]2)c1 [Example 164, 1-(6-Nitro-4-oxo-3,4-dihydro-quinazolin-2-yl)-1H-pyrazole-4-carboxylic acid] | 17% |
| 50.1 nM | O=C(O)c1cnn(-c2nc3cc(O)ccc3c(=O)[nH]2)c1 [Example 154, 1-(7-Hydroxy-4-oxo-3,4-dihydro-quinazolin-2-yl)-1H-pyrazole-4-carboxylic acid] | 12% |
| 31.6 nM | Cc1ccc(Oc2ccc3nc(-n4cc(C(=O)O)cn4)[nH]c(=O)c3c2)cc1 [Example 47, 1-(4-Oxo-6-p-tolyloxy-3,4-dihydro-quinazolin-2-yl)-1H-pyrazole-4-carboxylic acid] | 95% |
| 39.8 nM | O=C(O)c1cnn(-c2nc3ccc(N4CCOCC4)cc3c(=O)[nH]2)c1 [Example 107, 1-(6-morpholin-4-yl-4-oxo-3,4-dihydro-quinazolin-2-yl)-1H-pyrazole-4-carboxylic acid] | 45% |
| 50.1 nM | Cc1ccc2c(=O)[nH]c(-n3cc(C(=O)O)cn3)nc2c1 [Example 10, 1-(7-Methyl-4-oxo-3,4-dihydro-quinazolin-2-yl)-1H-pyrazole-4-carboxylic acid] | 32% |
| 31.6 nM | Cc1cccc(C)c1Oc1cc2c(=O)[nH]c(-n3cc(C(=O)O)cn3)nc2cc1Cl [Example 49, 1-[7-Chloro-6-(2,6-dimethyl-phenoxy)-4-oxo-3,4-dihydro-quinazolin-2-yl]-1H-pyrazole-4-carboxylic acid] | 55% |
| 31.6 nM | O=C(O)c1cnn(-c2nc3cc(Cc4ccccc4)ccc3c(=O)[nH]2)c1 [Example 136, 1-(7-Benzyl-4-oxo-3,4-dihydro-quinazolin-2-yl)-1H-pyrazole-4-carboxylic acid] | 23% |

Continued, molecule first:

| SMILES | IC50 [1] | Emax at 100 µM [2] |
| --- | --- | --- |
| O=C(O)c1cnn(-c2nc3ccc(C(=O)N4CCCC4)cc3c(=O)[nH]2)c1 [Example 162, 1-[4-Oxo-6-(pyrrolidine-1-carbonyl)-3,4-dihydro-quinazolin-2-yl]-1H-pyrazole-4-carboxylic acid] | 31.6 nM | 15% |
| O=C(O)c1cnn(-c2nc3ccc(Oc4ccc5ccccc5c4)cc3c(=O)[nH]2)c1 [Example 43, 1-[6-(Naphthalen-2-yloxy)-4-oxo-3,4-dihydro-quinazolin-2-yl]-1H-pyrazole-4-carboxylic acid] | 25.1 nM | 76% |
| O=C(O)c1cnn(-c2nc3ccc(-c4ccc(F)cc4)cc3c(=O)[nH]2)c1 [Example 197, 1-[6-(4-Fluoro-phenyl)-4-oxo-3,4-dihydro-quinazolin-2-yl]-1H-pyrazole-4-carboxylic acid] | 20 nM | 108% |
| N#Cc1cccc(CNc2ccc3nc(-n4cc(C(=O)O)cn4)[nH]c(=O)c3c2)c1 [Example 178, 1-[6-(3-Cyano-benzylamino)-4-oxo-3,4-dihydro-quinazolin-2-yl]-1H-pyrazole-4-carboxylic acid] | 20 nM | 12% |
| O=C(O)c1cnn(-c2nc3ccc(-c4cccc(F)c4)cc3c(=O)[nH]2)c1 [Example 196, 1-[6-(3-Fluoro-phenyl)-4-oxo-3,4-dihydro-quinazolin-2-yl]-1H-pyrazole-4-carboxylic acid] | 39.8 nM | 92% |
| O=C(O)c1cnn(-c2nc3ccc(NS(=O)(=O)c4ccccc4)cc3c(=O)[nH]2)c1 [Example 169, 1-(6-Benzenesulfonylamino-4-oxo-3,4-dihydro-quinazolin-2-yl)-1H-pyrazole-4-carboxylic acid] | 25.1 nM | 34% |
| O=C(O)c1cnn(-c2nc3ccc(NCc4c(Cl)cccc4Cl)cc3c(=O)[nH]2)c1 [Example 181, 1-[6-(2,6-Dichloro-benzylamino)-4-oxo-3,4-dihydro-quinazolin-2-yl]-1H-pyrazole-4-carboxylic acid] | 25.1 nM | 118% |
| O=C(O)c1cnn(-c2nc3cc(Cl)c(OC(F)(F)F)cc3c(=O)[nH]2)c1 [Example 22, 1-(7-Chloro-4-oxo-6-trifluoromethoxy-3,4-dihydro-quinazolin-2-yl)-1H-pyrazole-4-carboxylic acid] | 31.6 nM | 61% |
| Cc1cccc(C)c1Oc1c(F)cc2nc(-n3cc(C(=O)O)cn3)[nH]c(=O)c2c1F [Example 63, 1-[6-(2,6-Dimethyl-phenoxy)-5,7-difluoro-4-oxo-3,4-dihydro-quinazolin-2-yl]-1H-pyrazole-4-carboxylic acid] | 20 nM | 14% |
| Cc1cccc(C)c1NC(=O)c1ccc2nc(-n3cc(C(=O)O)cn3)[nH]c(=O)c2c1 [Example 163, 1-[6-(2,6-Dimethyl-phenylcarbamoyl)-4-oxo-3,4-dihydro-quinazolin-2-yl]-1H-pyrazole-4-carboxylic acid] | 39.8 nM | 14% |
| COc1cc2nc(-n3cc(C(=O)O)cn3)[nH]c(=O)c2cc1Oc1c(C)cccc1C [Example 61, 1-[6-(2,6-Dimethyl-phenoxy)-7-methoxy-4-oxo-3,4-dihydro-quinazolin-2-yl]-1H-pyrazole-4-carboxylic acid] | 20 nM | 86% |
| O=C(O)c1cnn(-c2nc3ccc(Oc4cccc5ccccc45)cc3c(=O)[nH]2)c1 [Example 29, 1-[6-(naphthalen-1-yloxy)-4-oxo-3,4-dihydro-quinazolin-2-yl]-1H-pyrazole-4-carboxylic acid] | 25.1 nM | 124% |
| COc1cccc(Oc2ccc3nc(-n4cc(C(=O)O)cn4)[nH]c(=O)c3c2)c1 [Example 31, 1-[6-(3-Methoxy-phenoxy)-4-oxo-3,4-dihydro-quinazolin-2-yl]-1H-pyrazole-4-carboxylic acid] | 20 nM | 129% |
| COc1cc2nc(-n3cc(C(=O)O)cn3)[nH]c(=O)c2cc1Oc1ccccc1 [Example 62, 1-(7-Methoxy-4-oxo-6-phenoxy-3,4-dihydro-quinazolin-2-yl)-1H-pyrazole-4-carboxylic acid] | 39.8 nM | 7% |
| O=C(O)c1cnn(-c2nc3ccc(Oc4ccc(Cl)cc4Cl)cc3c(=O)[nH]2)c1 [Example 39, 1-[6-(2,4-Dichloro-phenoxy)-4-oxo-3,4-dihydro-quinazolin-2-yl]-1H-pyrazole-4-carboxylic acid] | 25.1 nM | 77% |
